Literature values in patent EP2566462B1, “IMMEDIATE RELEASE FORMULATIONS AND DOSAGE FORMS OF GAMMA-HYDROXYBUTYRATE” (Jazz Pharmaceuticals Inc., priority 2010, dated 2011).

Key:
[1] = in man, given orally
[2] = test system: patients with hyperkinetic movement disorders including ethanol responsive myoclonus and essential tremor; conditions: open label, five patients

For `O=C([O-])CCCO.[Na+]` [sodium oxybate, Sodium gamma-hydroxybutyrate], the plasma half-life [1] is given as “about 45 minutes”, the “blinded ratings of ethanol responsive myoclonus and tremor” value [2] is given as “dose-dependent improvements” and the tolerability [2] is given as “tolerated at doses that provided clinical benefit”.
